From patent publication US20160331754A1, “THERAPIES FOR TREATING CANCERS” (GILEAD SCIENCES, INC., priority 2014, published 2016)
“And” between values parts separate entries of the source, which are not always exact repeats. Equal values may be shown once.

System: WIL2-S
Assay: ADCC LDH release assay, purified NK cells against WIL2-S target cells
Assay type: cell-based, human
Conditions: for Percentage of ADCC, 5 nM Compound B / Percentage of ADCC, 50 nM Compound B / Percentage of ADCC, 500 nM Compound B: antibody concentration 10 μg/mL; for Percentage of maximum ADCC, obinutuzumab: obinutuzumab 10 μg/mL; for Percentage of maximum ADCC, rituximab: rituximab 10 μg/mL
[1] = Compound B 0.98 nM, FcγRIIIa 158F/F
[2] = Compound B 0.98 nM, FcγRIIIa 158F/V
[3] = Compound B 0.98 nM, FcγRIIIa 158V/V
[4] = Compound B 1.95 nM, FcγRIIIa 158F/F
[5] = Compound B 1.95 nM, FcγRIIIa 158F/V
[6] = Compound B 1.95 nM, FcγRIIIa 158V/V
[7] = Compound B 3.91 nM, FcγRIIIa 158F/F
[8] = Compound B 3.91 nM, FcγRIIIa 158F/V
[9] = Compound B 3.91 nM, FcγRIIIa 158V/V
[10] = Compound B 7.81 nM, FcγRIIIa 158F/F
[11] = Compound B 7.81 nM, FcγRIIIa 158F/V
[12] = Compound B 7.81 nM, FcγRIIIa 158V/V
[13] = Compound B 15.63 nM, FcγRIIIa 158F/V
[14] = Compound B 15.63 nM, FcγRIIIa 158V/V
[15] = Compound B 31.25 nM, FcγRIIIa 158F/V
[16] = Compound B 31.25 nM, FcγRIIIa 158V/V

SMILES: CC[C@H](Nc1ncnc2[nH]cnc12)c1nc2cccc(F)c2c(=O)n1-c1ccccc1 [Compound B, (S)-2-(1-((9H-purin-6-yl)amino)propyl)-5-fluoro-3-phenylquinazolin-4(3H)-one]
- Percentage of ADCC, 5 nM Compound B (E:T 3:1): 58% and 56% and 53% and 49% and 46% and 44% and 39%
- Percentage of ADCC, 5 nM Compound B (E:T 10:1): 72% and 75% and 73% and 79% and 74%
- Percentage of ADCC, 5 nM Compound B (E:T 30:1): 81% and 82% and 79% and 76% and 80% and 77% and 85% and 84%
- Percentage of ADCC, 50 nM Compound B (E:T 3:1): 54% and 58% and 50% and 39% and 37% and 44% and 42%
- Percentage of ADCC, 50 nM Compound B (E:T 10:1): 72% and 74% and 69% and 77% and 76% and 73%
- Percentage of ADCC, 50 nM Compound B (E:T 30:1): 76% and 81% and 80% and 79% and 75% and 85% and 84%
- Percentage of ADCC, 500 nM Compound B (E:T 3:1): 50% and 53% and 36% and 34% and 39% and 35% and 38%
- Percentage of ADCC, 500 nM Compound B (E:T 10:1): 67% and 73% and 71% and 66% and 70%
- Percentage of ADCC, 500 nM Compound B (E:T 30:1): 76% and 79% and 77% and 72% and 75% and 81% and 82%
- Percentage of maximum ADCC, obinutuzumab [1]: 91% and 104%
- Percentage of maximum ADCC, obinutuzumab [2]: 103% and 104%
- Percentage of maximum ADCC, obinutuzumab [3]: 101% and 99%
- Percentage of maximum ADCC, rituximab [1]: 104% and 107%
- Percentage of maximum ADCC, rituximab [2]: 100% and 105%
- Percentage of maximum ADCC, rituximab [3]: 102% and 99%
- Percentage of maximum ADCC, obinutuzumab [4]: 89% and 106%
- Percentage of maximum ADCC, obinutuzumab [5]: 104% and 112%
- Percentage of maximum ADCC, obinutuzumab [6]: 107% and 100%
- Percentage of maximum ADCC, rituximab [4]: 103% and 111%
- Percentage of maximum ADCC, rituximab [5]: 105% and 111%
- Percentage of maximum ADCC, rituximab [6]: 105% and 104%
- Percentage of maximum ADCC, obinutuzumab [7]: 84% and 108%
- Percentage of maximum ADCC, obinutuzumab [8]: 105% and 110%
- Percentage of maximum ADCC, obinutuzumab [9]: 103% and 91%
- Percentage of maximum ADCC, rituximab [7]: 97% and 109%
- Percentage of maximum ADCC, rituximab [8]: 102% and 110%
- Percentage of maximum ADCC, rituximab [9]: 102% and 105%
- Percentage of maximum ADCC, obinutuzumab [10]: 89% and 107%
- Percentage of maximum ADCC, obinutuzumab [11]: 109% and 107%
- Percentage of maximum ADCC, obinutuzumab [12]: 94% and 90%
- Percentage of maximum ADCC, rituximab [10]: 91% and 108%
- Percentage of maximum ADCC, rituximab [11]: 104% and 110%
- Percentage of maximum ADCC, rituximab [12]: 100%
- Percentage of maximum ADCC, obinutuzumab (Compound B 15.63 nM, FcγRIIIa 158F/F): 80% and 108%
- Percentage of maximum ADCC, obinutuzumab [13]: 106% and 109%
- Percentage of maximum ADCC, obinutuzumab [14]: 93% and 90%
- Percentage of maximum ADCC, rituximab [13]: 100% and 108%
- Percentage of maximum ADCC, rituximab [14]: 98% and 101%
- Percentage of maximum ADCC, obinutuzumab (Compound B 31.25 nM, FcγRIIIa 158F/F): 85% and 107%
- Percentage of maximum ADCC, obinutuzumab [15]: 107%
- Percentage of maximum ADCC, obinutuzumab [16]: 95% and 82%
- Percentage of maximum ADCC, rituximab [15]: 100% and 104%
- Percentage of maximum ADCC, rituximab [16]: 94%
- Percentage of maximum ADCC, obinutuzumab (Compound B 62.5 nM, FcγRIIIa 158F/F): 88% and 108%
- Percentage of maximum ADCC, obinutuzumab (Compound B 62.5 nM, FcγRIIIa 158F/V): 112% and 103%
- Percentage of maximum ADCC, obinutuzumab (Compound B 62.5 nM, FcγRIIIa 158V/V): 98% and 78%
